Measurements reported in patent US6410735B1, “1-(4-arylpiperazin-1-y1)-ω-[N-(α,ω-dicarboximido)]-alkanes useful as uro-selective α1-adrenoceptor blockers” (Ranbaxy Laboratories Limited, priority 1997, dated 2002).
pKi: −log10 of the molar value. Structures can show the parent of a compound that is named as a salt. Where two headings read alike, the source gives them in different places.

What was measured:
[1] = biological target: T1, α1A-adrenoceptor (Rattus norvegicus, UniProt P43140); experiment: Receptor binding assay, [3H]prazosin, rat submaxillary membranes; conditions: for Ki: rat submaxillary membranes, 0.5 nM [3H]prazosin, read-out: RBA (Ki nM) α1A
T1 construct: from tissue; host or cells: rat submaxillary gland membranes
T1 sequence (P43140 1-466): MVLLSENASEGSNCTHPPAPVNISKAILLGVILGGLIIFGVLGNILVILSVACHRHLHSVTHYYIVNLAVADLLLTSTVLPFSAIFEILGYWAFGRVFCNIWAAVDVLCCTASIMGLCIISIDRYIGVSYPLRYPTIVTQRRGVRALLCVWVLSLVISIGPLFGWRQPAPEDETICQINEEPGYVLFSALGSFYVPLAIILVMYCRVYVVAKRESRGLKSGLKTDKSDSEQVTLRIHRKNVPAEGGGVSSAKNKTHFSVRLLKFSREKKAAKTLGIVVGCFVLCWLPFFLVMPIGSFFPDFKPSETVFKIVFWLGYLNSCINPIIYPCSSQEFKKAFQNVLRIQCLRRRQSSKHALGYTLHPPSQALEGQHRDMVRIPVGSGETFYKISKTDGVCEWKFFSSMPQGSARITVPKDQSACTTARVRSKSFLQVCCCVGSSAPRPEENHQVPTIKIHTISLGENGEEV
Description: (§1) Receptor binding assays, (RBA's) were performed for native α1-adrenoceptors. Rat submaxillary and rat liver membrane preparations were used to assess the affinity for α1A and α1B subtypes, respectively. Aliquots of membrane protein ([…]) were incubated in a final volume of […] assay buffer (50 mM Tris, 0.5 mM EDTA at pH 7.4) with 0.5 nM [^3H] prazosin for 60 mins at 28 ° C. Reaction was stopped by rapid filtration on Millipore filters. Filters were dried and bound radioactivity counted. Non-specific binding was determined in the presence of 0.3 mM prazosin.

[2] = biological target: T2, α1B-adrenoceptor (Rattus norvegicus, UniProt P15823); experiment: Receptor binding assay, [3H]prazosin, rat liver membranes; conditions: rat liver membranes, 0.5 nM [3H]prazosin; read-out: RBA (Ki nM) α1B
T2 construct: from tissue; host or cells: rat liver membranes
T2 sequence (P15823 1-515): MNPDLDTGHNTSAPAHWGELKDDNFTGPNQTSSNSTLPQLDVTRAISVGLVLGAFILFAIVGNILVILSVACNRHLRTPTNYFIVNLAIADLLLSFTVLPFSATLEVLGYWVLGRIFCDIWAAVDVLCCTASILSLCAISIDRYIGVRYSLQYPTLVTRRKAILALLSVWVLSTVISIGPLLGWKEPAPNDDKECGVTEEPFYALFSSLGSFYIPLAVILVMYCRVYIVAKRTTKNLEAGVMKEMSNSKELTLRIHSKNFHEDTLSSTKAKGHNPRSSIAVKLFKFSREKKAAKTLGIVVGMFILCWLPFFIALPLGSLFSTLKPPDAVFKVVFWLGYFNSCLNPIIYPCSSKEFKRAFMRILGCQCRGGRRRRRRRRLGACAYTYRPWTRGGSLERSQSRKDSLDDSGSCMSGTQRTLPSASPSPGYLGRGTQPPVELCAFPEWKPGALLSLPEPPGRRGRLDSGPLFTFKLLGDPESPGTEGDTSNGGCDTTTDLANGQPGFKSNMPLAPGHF
Description: as §1

[3] = biological target: T3, α1A-adrenoceptor (prostate) (Rattus norvegicus, UniProt P43140); experiment: In vitro functional assay, phenylephrine-induced contraction of isolated prostate; assay type: cell-based
T3 construct: Aorta, prostate and spleen tissues were isolated from urethane anaesthetized (1.5 gm/kg) male wistar rats; from tissue; host or cells: isolated prostate of male Wistar rats
T3 sequence (P43140 1-466): T1 sequence (P43140 1-466)
Text: (§2) In order to study selectivity of action of the present compounds towards different α-adrenoceptor subtypes, the ability of these compounds to antagonize α1-adrenoceptor agonist induced contractile response of aorta (α1D), prostate (α1A) and spleen (α1B) was studied. Aorta, prostate and spleen tissues were isolated from urethane anaesthetized (1.5 gm/kg) male wistar rats. Isolated tissues were mounted in organ bath containing Krebs Henseleit buffer of the following composition (mM): NaCl 118; KCl 4.7; CaCl2 2.5; MgSO4·H2O 1.2; NaHCO3 25; KH2PO4 1.2; glucose 11.5. Buffer was maintained at 37° C. and aerated with a mixture of 95% O2 and 5% CO2. A resting tension of 2 g (aorta) or 1 g (spleen and prostate) was applied to tissues. Contractile response was monitored using a force displacement transducer and recorded on chart recorders. Tissues were allowed to equilibrate for 2 hours. At the end of equilibration period, concentration response curves to norepinephrine (aorta) and phenylephrine (spleen and prostate) were obtained in the absence and presence of the tested compound (at concentrations of 0.1, 1 and 10 μM). Antagonist affinity was calculated and expressed as PKB values in Table 1.

[4] = biological target: T4, α1B-adrenoceptor (spleen) (Rattus norvegicus, UniProt P15823); experiment: In vitro functional assay, phenylephrine-induced contraction of isolated spleen; assay type: cell-based
T4 construct: Aorta, prostate and spleen tissues were isolated from urethane anaesthetized (1.5 gm/kg) male wistar rats; from tissue; host or cells: isolated spleen of male Wistar rats
T4 sequence (P15823 1-515): T2 sequence (P15823 1-515)
Text: as §2

[5] = biological target: T5, α1D-adrenoceptor (aorta) (Rattus norvegicus, UniProt P23944); experiment: In vitro functional assay, norepinephrine-induced contraction of isolated aorta; assay type: cell-based
T5 construct: Aorta, prostate and spleen tissues were isolated from urethane anaesthetized (1.5 gm/kg) male wistar rats; from tissue; host or cells: isolated aorta of male Wistar rats
T5 sequence (P23944 1-561): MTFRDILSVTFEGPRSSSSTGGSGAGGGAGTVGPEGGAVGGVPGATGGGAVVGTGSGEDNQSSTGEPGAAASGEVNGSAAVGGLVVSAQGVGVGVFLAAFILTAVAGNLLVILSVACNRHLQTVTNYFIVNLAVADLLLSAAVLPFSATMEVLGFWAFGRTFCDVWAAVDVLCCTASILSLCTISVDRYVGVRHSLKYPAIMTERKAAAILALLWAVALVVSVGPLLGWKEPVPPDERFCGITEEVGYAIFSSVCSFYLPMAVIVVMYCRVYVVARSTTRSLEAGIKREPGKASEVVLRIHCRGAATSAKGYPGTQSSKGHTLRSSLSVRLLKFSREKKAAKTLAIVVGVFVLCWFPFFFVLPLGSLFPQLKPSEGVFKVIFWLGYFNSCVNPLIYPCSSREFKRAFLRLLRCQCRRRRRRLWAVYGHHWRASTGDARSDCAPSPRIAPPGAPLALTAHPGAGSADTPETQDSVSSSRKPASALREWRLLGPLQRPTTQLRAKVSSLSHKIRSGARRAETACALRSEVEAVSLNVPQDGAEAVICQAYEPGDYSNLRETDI
Text: as §2

[6] = rat prostate, phenylephrine, read-out: In Vitro Functional Assay (pKB) α1A (converted)
[7] = rat spleen, phenylephrine, read-out: In Vitro Functional Assay (pKB) α1B (converted)
[8] = rat aorta, norepinephrine, read-out: In Vitro Functional Assay (pKB) α1D (converted)

O=C1CCC(=O)N1CCCN1CCN(c2cccc(C(F)(F)F)c2)CC1 (as salt: hydrochloride) [Compound 3, 1-[4-(3-Trifluoromethylphenyl)piperazin-1-yl]-3-(2,5-dioxopyrrolidin-1-yl)propane]
melting point: 218 to 220 °C

O=C1CCC(=O)N1CCCN1CCN(c2ccccn2)CC1 (as salt: hydrochloride) [Compound 4, 1-[4-(2-Pyridyl)piperazin-1-yl]-3-(2,5-dioxopyrrolidin-1-yl)propane]
melting point: 261 to 262 °C

O=C1CCC(=O)N1CCCN1CCN(c2cccc(Cl)c2)CC1 (as salt: hydrochloride) [Compound 5, 1-[4-(3-Chlorophenyl)piperazin-1-yl]-3-(2,5-dioxopyrrolidin-1-yl)propane]
melting point: 230 to 231 °C

COc1ccccc1N1CCN(CCN2C(=O)CCC2=O)CC1 (as salt: hydrochloride) [Compound 10, 1-[4-(2-Methoxyphenyl)piperazin-1-yl]-2-(2,5-dioxopyrrolidin-1-yl)ethane]
melting point: 232 to 234 °C

O=C1CCCC(=O)N1CCCN1CCN(c2cccc(C(F)(F)F)c2)CC1 (as salt: hydrochloride) [Compound 16, 1-[4-(3-Trifluoromethylphenyl)piperazin-1-yl]-3-(2,6-dioxopiperidin-1-yl)propane]
melting point: 228 to 229 °C

O=C1CCCC(=O)N1CCCN1CCN(c2ccccn2)CC1 (as salt: hydrochloride) [Compound 19, 1-[4-(2-Pyridyl)piperazin-1-yl)-3-(2,6-dioxopiperidin-1-yl)propane]
melting point: 244 to 245 °C

O=C1CCCC(=O)N1CCCN1CCN(c2cccc(Cl)c2)CC1 (as salt: hydrochloride) [Compound 20, 1-[4-(3-Chlorophenyl)piperazin-1-yl]-3-(2,6-dioxopiperidin-1-yl)propane]
melting point: 214 to 215 °C

O=C1CCCC(=O)N1CCCN1CCN(c2ccccc2F)CC1 [Compound 17, 1-[4-(2-Fluorophenyl)piperazin-1-yl]-3-(2,6-dioxopiperidin-1-yl)propane]
pKi [1]: 7.68 | Ki [2]: 396 nM | Kb [3]: 10 nM | Kb [4]: 79.4 nM | Kb [5]: 12.6 nM

Cc1ccccc1N1CCN(CCCN2C(=O)CCCC2=O)CC1 [Compound 18, 1-[4-(2-Methylphenyl)piperazin-1-yl]-3-(2,6-dioxopiperidin-1yl)propane]
Ki [1]: 9 nM | Ki [2]: 267 nM | Kb [3, 6]: 6.31 nM | Kb [4, 7]: 3160 nM | Kb [5, 8]: 3.16 nM

Cc1ccc(N2CCN(CCCN3C(=O)CCCC3=O)CC2)cc1C [Compound 21, 1-[4-(3,4-Dimethylphenyl)piperazin-1-yl]-3-(2,6-dioxopiperidin-1yl)propane]
Ki [1]: 2130 nM | Ki [2]: 176 nM | Kb [3, 6]: 316 nM | Kb [4, 7]: 200 nM | Kb [5, 8]: 316 nM
